{"source": "patent US8921563B2", "about": "“1-[(4-hydroxypiperidin-4-yl)methyl]pyridin-2(1H)-one derivatives, preparation methods and uses thereof” (Institue of Pharmacology and Toxicology Academy of Military …, priority 2010, dated 2014)", "key": {"[1]": {"molecular_target": "T1, 5-HT transport protein (SERT) (Rattus norvegicus, UniProt P31652)", "T1 construct": "Preparation of Membrane Proteins in Rat Hippocampi; from tissue; host or cells: Wistar rat hippocampus", "T1 sequence (P31652 whole entry)": "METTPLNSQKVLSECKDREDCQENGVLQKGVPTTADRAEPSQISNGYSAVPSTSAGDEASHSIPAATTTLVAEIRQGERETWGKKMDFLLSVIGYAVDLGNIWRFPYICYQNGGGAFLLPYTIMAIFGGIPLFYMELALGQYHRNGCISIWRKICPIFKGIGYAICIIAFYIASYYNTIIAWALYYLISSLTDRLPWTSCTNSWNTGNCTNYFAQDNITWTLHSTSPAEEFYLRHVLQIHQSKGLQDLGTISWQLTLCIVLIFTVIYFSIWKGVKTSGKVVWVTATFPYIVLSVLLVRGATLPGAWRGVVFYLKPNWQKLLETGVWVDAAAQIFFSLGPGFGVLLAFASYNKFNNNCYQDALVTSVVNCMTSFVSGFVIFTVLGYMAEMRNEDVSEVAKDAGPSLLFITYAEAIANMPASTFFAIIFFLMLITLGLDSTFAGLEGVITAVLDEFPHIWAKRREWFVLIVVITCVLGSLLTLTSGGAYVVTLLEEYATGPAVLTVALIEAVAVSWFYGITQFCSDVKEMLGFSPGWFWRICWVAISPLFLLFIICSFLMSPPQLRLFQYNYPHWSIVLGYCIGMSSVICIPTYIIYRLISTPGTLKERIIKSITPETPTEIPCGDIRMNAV", "assay": "Screening: competitive binding test to SERT using [3H]-citalopram", "settings": "[3H]-citalopram 1 nM, read-out: Inhibition percent (I %), competitive binding to 5-HT transport protein (SERT)", "procedure": "The homogenate was centrifuged under 1000×g for 10 minutes and the supernatant was then centrifuged under 39000×g for 10 minutes. The precipitate was collected, and resuspended with 10 times volume of Tris-HCl buffer solution (pH 7.4) relative to the original weight, then centrifuged under 39000×g for 10 minutes. The precipitate was washed with the same buffer solution, centrifuged under 39000×g for 10 minutes and the precipitate was suspended with the above buffer solution. After sub-packaged (the whole operation procedures were performed under ice bath), the product was stored at −80° C. The protein concentration was measured by Lowrry method."}, "[2]": {"molecular_target": "T2, 5-HT reuptake (Rattus norvegicus, UniProt P31652)", "T2 construct": "from tissue; host or cells: rat brain (hippocampi and cortex separated; results from cortex), crude synaptosomes", "T2 sequence (P31652 whole entry)": "as above", "assay": "5-HT reuptake inhibition in crudely produced rat synaptosomes ([3H]-5-HT)", "type": "biochemical", "settings": "[3H]-5-HT 20.3 nM, read-out: IC50 of 5-HT reuptake inhibition in rat brain", "experimental": "(1) Preparation of Synaptosome Protein.\n1) Rats were rapidly decapitated and the brains were removed, and hippocampi and cortex were separated on ice.\n2) Same brain tissues of 3 rats were combined, to which 10 times volume of ice-bath homogenate was added, and homogenized.\n3) The homogenate was centrifuged at 4° C. under 1500 g for 10 minutes and the precipitate was decanted.\n4) The supernatant was centrifuged at 4° C. under 12000 g for 15 minutes and the supernatant was decanted, and the precipitate portion was a crudely produced synaptosome.\n5) Washed with resuspension buffer twice and centrifuged at 4° C. under 13000 g for 10 minutes and resuspended again.\n6) Protein concentration was measured by Lowrry method.\n7) The synaptosome was preserved on ice, and the test was completed within 4-6 h.\n1) To all tubes, the crudely produced synaptosome protein was added in an amount of 50 μg in sequence.\n3) To the test tubes, the drug to be tested in various concentrations in range of 10^−3-10^−10M was added in sequence and reacted for 15 minutes. […]\n7) The samples were then applied to 49-type glass fibre filters, vacuum suction filtered, washed 5 times with 10 ml ice-cooled Tris-HCl buffer. […] The radioactive intensity was measured by using LS6500 type liquid scintillation counter.\nThe calculated inhibition percents were used to calculate IC50 value by using Orgin7.0/GraphPad Prism 4.0 software."}, "[3]": {"tested_on": "mice", "assay": "Forced swim test in mice", "type": "in vivo", "settings": "acute, 1 h before test", "procedure": "2.1.1 Forced Swim Test in Mice\nForced swim test in mice is an acute behavioral despair model established by Porsolt, et al.\n(1) Experimental device: a glass cylinder (diameter 13 cm, height 24 cm, containing 10 cm of water maintained at 25).\n(2) Experimental method: Male Kunming mice weighing 20-25 g. The mice were gently put in the water 1 h after intragastrically drug administration, and then the duration of immobility in the last 4 min of total 6 min test was recorded."}, "[4]": {"tested_on": "mice", "assay": "Tail suspension test in mice", "type": "in vivo", "settings": "acute, 1 h before test", "source_text": "2.1.2 Tail Suspension Test in Mice\nTail suspension test in mice is an acute behavioral despair model established by Stem, et al. (1985).\n1) Experimental device: an experimental frame with spacing boards which dividing the experimental frame into 2 experimental chambers (20×25×30 cm). A clamp is mounted on a through cross rod in the chamber for clamping mice tail so as to suspend the mice.\n2) Experimental method: Male Kunming mice weighing 20-25 g. The mice were intragastrically administered with YL-0911 or vehicle (distilled water). After 1 h, wrap adhesive tape around the mouse's tail in position three quarters of the distance from the base of the tail and then suspend the animals by passing the suspension hook through the adhesive tape 5 cm above the table. The duration of immobility in the last 4 min of total 6 min test was recorded."}, "[5]": {"molecular_target": "SERT (Homo sapiens, UniProt P31645)", "sequence (P31645 whole entry)": "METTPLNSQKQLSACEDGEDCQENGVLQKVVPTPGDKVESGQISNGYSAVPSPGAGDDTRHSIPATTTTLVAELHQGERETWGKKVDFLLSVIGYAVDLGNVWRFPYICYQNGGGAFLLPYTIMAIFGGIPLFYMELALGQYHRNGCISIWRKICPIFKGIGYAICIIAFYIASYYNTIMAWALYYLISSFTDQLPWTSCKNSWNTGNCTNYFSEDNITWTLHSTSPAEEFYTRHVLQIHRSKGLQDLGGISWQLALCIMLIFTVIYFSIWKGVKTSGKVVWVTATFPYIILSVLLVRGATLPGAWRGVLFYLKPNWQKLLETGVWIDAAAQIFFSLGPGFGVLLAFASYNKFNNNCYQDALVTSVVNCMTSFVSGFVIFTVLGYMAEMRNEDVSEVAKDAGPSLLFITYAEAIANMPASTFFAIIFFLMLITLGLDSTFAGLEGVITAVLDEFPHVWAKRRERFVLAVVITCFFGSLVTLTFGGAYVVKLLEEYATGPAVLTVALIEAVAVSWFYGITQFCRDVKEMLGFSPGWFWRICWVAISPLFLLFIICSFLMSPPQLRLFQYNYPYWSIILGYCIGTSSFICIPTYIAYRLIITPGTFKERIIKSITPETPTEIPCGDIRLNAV", "assay": "Competitive binding test of YL-0911 and positive drugs to SERT (hSERT from transfected cell lines)"}}, "data": [{"compound": "O=c1ccccn1CC1(O)CCN(Cc2ccccc2)CC1", "note": "[Compound 1, 1-[(1-benzyl-4-hydroxypiperidin-4-yl)-methyl]-pyridin-2(1H)-one]", "values": [{"measurement": "inhibition at 10 µM", "setting": "[1]; compound 10^-5 mol/L", "result": 100, "unit": "%"}, {"measurement": "inhibition at 0.1 µM", "setting": "[1]; compound 10^-7 mol/L", "result": 84, "unit": "%"}, {"measurement": "IC50", "setting": "[2]", "result": "8.51 ± 0.23", "unit": "nM"}, {"measurement": "Immobility time (s), forced swim test", "setting": "[3]; 0.625 mg/kg p.o.", "result": "126.1 ± 60.9", "unit": "s"}, {"measurement": "Immobility time (s), forced swim test", "setting": "[3]; 1.25 mg/kg p.o.", "result": "72.0 ± 46.5", "unit": "s"}, {"measurement": "Immobility time (s), forced swim test", "setting": "[3]; 5 mg/kg p.o.", "result": "149.6 ± 39.1", "unit": "s"}, {"measurement": "Immobility time (s), tail suspension test", "setting": "[4]; 0.625 mg/kg p.o.", "result": "105.4 ± 24.6", "unit": "s"}, {"measurement": "Immobility time (s), tail suspension test", "setting": "[4]; 1.25 mg/kg p.o.", "result": "93.8 ± 38.7", "unit": "s"}, {"measurement": "Immobility time (s), tail suspension test", "setting": "[4]; 5 mg/kg p.o.", "result": "98.8 ± 45.3", "unit": "s"}, {"measurement": "Ki", "setting": "[5]", "result": "5.38 ± 0.27", "unit": "nM"}]}]}
